Literature values, collected in patent EP0527942B1, “COLONIC DRUG DELIVERY SYSTEM” (Perio Products Limited, priority 1990, dated 1991).

Test system: morphine-dependent rats
Conditions: for time to diarrhea, withdrawal behavior and tail skin temperature response: oral administration

Molecule	time to diarrhea, withdrawal behavior and tail skin temperature response [min]	time to diarrhea (direct colonic administration) [min]	activity when administered subcutaneously (subcutaneous administration)
C=CCN1CC[C@]23c4c5ccc(O)c4O[C@H]2C(=O)CC[C@@]3(O)[C@H]1C5 [naloxone]	≤ 15	–	–
C=C1CC[C@@]2(O)[C@H]3Cc4ccc(O)c5c4[C@@]2(CCN3CC2CC2)[C@H]1O5 [nalmefene]	≤ 15	–	–
nalmefene glucuronide	–	5 to 8	inactive
